Data reported in patent US9249129B2, “Morpholino substituted urea derivatives as mTOR inhibitors” (CELLZOME LIMITED, priority 2010, dated 2016).
pIC50: −log10 of the molar value.

Assays:
Test in all cases: kinobeads assay with mass spectrometry detection of kinases (kinase selectivity profile)
Assay type in all cases: binding
kinases (kinome) [1] = target: T1, kinases (kinome) (Homo sapiens, UniProt P42336); conditions: PIK3Ca (Lipid Kinase), IPI00031386
T1 construct: determined in kinobeads assays with mass spectrometry detection of kinases as described previously; endogenous in cells; host or cells: cell lysate
Source text: (§1) The protein kinase complement of the human genome (the kinome) was described previously (Manning et al., 2002. Science 298(5600):1912-1934). Sequence accession numbers are defined by the International Protein Index (IPI) (Kersey et al., 2004. Proteomics 4(7):1985-1988).

kinases (kinome) [2] = target: T2, kinases (kinome) (Homo sapiens, UniProt P29323); conditions: EphB2 (TK), IPI00021275
T2 construct: determined in kinobeads assays with mass spectrometry detection of kinases as described previously; endogenous in cells; host or cells: cell lysate
T2 sequence (P29323 19-1055): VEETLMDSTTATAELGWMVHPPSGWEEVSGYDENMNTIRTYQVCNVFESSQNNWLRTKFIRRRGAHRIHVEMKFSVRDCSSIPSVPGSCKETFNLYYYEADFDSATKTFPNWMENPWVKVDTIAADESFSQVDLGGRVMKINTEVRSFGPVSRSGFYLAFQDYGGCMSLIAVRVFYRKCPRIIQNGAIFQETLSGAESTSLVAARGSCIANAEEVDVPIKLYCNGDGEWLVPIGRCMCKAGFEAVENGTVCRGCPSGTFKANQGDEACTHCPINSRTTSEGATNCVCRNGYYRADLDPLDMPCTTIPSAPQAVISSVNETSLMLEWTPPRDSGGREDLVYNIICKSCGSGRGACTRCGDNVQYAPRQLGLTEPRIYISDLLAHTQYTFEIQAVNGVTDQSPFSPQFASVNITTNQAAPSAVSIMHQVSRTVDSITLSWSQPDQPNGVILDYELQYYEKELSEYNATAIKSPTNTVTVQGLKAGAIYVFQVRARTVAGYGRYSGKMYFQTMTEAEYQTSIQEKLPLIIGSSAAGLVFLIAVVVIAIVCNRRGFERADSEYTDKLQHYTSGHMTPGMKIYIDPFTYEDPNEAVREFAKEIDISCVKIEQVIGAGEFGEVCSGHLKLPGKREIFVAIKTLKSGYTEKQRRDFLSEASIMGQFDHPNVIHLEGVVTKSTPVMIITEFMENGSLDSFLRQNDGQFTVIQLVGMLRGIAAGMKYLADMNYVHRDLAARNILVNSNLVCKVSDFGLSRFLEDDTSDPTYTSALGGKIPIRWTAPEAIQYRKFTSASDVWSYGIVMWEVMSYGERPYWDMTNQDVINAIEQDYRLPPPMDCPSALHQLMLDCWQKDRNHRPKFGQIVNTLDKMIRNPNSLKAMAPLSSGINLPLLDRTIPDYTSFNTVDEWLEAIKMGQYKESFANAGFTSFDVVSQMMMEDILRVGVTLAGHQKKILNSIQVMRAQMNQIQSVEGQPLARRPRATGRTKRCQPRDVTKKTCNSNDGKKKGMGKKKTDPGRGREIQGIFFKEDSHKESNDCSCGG
Source text: as §1

kinases (kinome) [3] = target: T3, kinases (kinome) (Homo sapiens, UniProt P09769); conditions: FGR (TK), IPI00016871
T3 construct: determined in kinobeads assays with mass spectrometry detection of kinases as described previously; endogenous in cells; host or cells: cell lysate
Source text: as §1

kinases (kinome) [4] = target: T4, kinases (kinome) (Homo sapiens, UniProt Q9NYL2); conditions: ZAK (TKL), IPI00329638
T4 construct: determined in kinobeads assays with mass spectrometry detection of kinases as described previously; endogenous in cells; host or cells: cell lysate
Source text: as §1

kinases (kinome) [5] = target: T5, kinases (kinome) (Homo sapiens, UniProt P25440); conditions: BRD2 (Atypical), IPI00440502
T5 construct: determined in kinobeads assays with mass spectrometry detection of kinases as described previously; endogenous in cells; host or cells: cell lysate
Source text: as §1

kinases (kinome) [6] = target: T6, kinases (kinome) (Homo sapiens, UniProt P48736); conditions: PIK3Cg (Lipid Kinase), IPI00292690
T6 construct: determined in kinobeads assays with mass spectrometry detection of kinases as described previously; endogenous in cells; host or cells: cell lysate
Source text: as §1

kinases (kinome) [7] = target: T7, kinases (kinome) (Homo sapiens, UniProt Q05397); conditions: FAK (TK), IPI00413961
T7 construct: determined in kinobeads assays with mass spectrometry detection of kinases as described previously; endogenous in cells; host or cells: cell lysate
Source text: as §1

kinases (kinome) [8] = target: T8, kinases (kinome) (Homo sapiens, UniProt Q15569); conditions: TESK1 (TKL), IPI00018182
T8 construct: determined in kinobeads assays with mass spectrometry detection of kinases as described previously; endogenous in cells; host or cells: cell lysate
Source text: as §1

kinases (kinome) [9] = target: T9, kinases (kinome) (Homo sapiens, UniProt Q96GD4); conditions: AurB (Other), IPI00796914
T9 construct: determined in kinobeads assays with mass spectrometry detection of kinases as described previously; endogenous in cells; host or cells: cell lysate
Source text: as §1

kinases (kinome) [10] = target: T10, kinases (kinome) (Homo sapiens, UniProt Q9H0K1); conditions: QIK (CAMK), IPI00465291
T10 construct: determined in kinobeads assays with mass spectrometry detection of kinases as described previously; endogenous in cells; host or cells: cell lysate
Source text: as §1

kinases (kinome) [11] = target: T11, kinases (kinome) (Homo sapiens, UniProt Q9UBE8); conditions: NLK (CMGC), IPI00008237
T11 construct: determined in kinobeads assays with mass spectrometry detection of kinases as described previously; endogenous in cells; host or cells: cell lysate
T11 sequence (Q9UBE8 1-527): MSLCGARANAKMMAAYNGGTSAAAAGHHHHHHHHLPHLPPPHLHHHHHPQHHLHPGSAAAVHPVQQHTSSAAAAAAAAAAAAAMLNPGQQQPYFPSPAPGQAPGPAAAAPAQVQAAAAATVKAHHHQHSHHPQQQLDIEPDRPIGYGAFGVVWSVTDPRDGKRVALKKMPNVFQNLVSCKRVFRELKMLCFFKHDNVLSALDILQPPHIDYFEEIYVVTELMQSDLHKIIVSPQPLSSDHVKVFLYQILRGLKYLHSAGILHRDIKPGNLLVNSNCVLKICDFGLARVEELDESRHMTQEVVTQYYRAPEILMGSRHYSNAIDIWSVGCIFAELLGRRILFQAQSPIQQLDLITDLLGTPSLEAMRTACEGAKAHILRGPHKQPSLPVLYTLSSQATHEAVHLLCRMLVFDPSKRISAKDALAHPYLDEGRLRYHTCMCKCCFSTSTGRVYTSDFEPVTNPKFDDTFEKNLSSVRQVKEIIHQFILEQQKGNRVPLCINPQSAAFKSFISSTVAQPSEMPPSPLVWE
Source text: as §1

Measured: pIC50

T5 sequence (P25440 whole entry): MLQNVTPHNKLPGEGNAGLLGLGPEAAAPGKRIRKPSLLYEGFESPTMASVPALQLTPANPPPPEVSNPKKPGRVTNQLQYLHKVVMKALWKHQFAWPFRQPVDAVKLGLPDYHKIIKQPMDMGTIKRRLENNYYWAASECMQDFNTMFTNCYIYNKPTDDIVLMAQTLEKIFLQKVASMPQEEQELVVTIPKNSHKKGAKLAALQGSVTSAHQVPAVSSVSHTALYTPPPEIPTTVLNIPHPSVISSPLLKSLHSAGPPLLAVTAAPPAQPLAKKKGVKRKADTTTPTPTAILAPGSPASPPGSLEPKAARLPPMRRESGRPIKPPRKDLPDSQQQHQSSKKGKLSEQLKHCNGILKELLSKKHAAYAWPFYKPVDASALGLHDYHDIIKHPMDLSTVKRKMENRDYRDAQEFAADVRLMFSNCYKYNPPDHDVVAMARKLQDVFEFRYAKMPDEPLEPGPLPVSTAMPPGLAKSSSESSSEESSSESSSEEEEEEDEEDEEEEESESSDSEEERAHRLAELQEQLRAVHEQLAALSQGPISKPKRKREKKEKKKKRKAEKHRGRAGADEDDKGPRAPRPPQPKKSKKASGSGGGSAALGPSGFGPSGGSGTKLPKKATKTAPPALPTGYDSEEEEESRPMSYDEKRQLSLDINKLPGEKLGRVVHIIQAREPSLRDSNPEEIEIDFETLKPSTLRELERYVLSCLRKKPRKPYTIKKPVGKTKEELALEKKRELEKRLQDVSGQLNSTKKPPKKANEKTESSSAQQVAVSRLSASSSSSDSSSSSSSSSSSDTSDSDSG
T1 sequence (P42336 whole entry): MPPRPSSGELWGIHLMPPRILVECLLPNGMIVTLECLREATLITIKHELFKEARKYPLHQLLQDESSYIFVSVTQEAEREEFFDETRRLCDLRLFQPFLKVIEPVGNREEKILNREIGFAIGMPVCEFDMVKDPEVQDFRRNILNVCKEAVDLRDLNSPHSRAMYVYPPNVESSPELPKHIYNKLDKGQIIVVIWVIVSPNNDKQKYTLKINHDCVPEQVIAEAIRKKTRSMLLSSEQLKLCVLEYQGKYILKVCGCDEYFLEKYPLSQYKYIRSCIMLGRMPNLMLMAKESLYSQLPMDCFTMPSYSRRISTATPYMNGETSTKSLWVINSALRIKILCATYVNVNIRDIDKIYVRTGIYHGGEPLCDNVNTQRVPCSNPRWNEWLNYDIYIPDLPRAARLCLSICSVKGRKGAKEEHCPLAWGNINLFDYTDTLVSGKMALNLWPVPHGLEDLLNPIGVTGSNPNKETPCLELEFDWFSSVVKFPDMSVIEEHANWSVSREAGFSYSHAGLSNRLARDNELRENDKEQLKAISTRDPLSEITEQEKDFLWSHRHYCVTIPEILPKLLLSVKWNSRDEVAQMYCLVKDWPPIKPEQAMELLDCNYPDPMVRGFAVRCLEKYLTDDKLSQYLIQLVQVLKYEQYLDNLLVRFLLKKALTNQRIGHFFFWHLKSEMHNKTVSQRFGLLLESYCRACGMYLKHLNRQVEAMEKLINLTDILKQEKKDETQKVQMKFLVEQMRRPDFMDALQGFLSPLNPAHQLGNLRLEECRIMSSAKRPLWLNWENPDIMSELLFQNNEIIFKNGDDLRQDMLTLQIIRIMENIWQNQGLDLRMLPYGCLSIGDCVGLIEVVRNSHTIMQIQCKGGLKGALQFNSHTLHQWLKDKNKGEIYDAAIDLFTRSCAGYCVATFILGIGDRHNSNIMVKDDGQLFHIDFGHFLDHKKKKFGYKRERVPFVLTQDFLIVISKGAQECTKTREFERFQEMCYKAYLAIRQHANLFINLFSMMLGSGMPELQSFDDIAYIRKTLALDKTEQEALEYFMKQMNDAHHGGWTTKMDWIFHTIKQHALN
T3 sequence (P09769 whole entry): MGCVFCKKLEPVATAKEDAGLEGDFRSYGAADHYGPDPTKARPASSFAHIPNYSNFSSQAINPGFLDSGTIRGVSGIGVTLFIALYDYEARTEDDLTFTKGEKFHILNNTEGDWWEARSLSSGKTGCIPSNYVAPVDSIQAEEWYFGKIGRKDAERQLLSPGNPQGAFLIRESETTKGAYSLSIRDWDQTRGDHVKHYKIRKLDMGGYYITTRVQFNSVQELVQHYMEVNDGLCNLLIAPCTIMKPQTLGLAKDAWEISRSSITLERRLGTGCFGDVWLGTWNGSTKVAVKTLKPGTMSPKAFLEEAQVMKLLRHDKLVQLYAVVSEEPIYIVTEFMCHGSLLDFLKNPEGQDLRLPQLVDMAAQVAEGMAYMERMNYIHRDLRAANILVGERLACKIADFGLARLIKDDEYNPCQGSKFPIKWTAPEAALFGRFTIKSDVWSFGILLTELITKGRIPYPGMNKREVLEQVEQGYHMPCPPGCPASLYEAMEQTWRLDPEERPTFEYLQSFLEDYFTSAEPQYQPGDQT
T4 sequence (Q9NYL2 whole entry): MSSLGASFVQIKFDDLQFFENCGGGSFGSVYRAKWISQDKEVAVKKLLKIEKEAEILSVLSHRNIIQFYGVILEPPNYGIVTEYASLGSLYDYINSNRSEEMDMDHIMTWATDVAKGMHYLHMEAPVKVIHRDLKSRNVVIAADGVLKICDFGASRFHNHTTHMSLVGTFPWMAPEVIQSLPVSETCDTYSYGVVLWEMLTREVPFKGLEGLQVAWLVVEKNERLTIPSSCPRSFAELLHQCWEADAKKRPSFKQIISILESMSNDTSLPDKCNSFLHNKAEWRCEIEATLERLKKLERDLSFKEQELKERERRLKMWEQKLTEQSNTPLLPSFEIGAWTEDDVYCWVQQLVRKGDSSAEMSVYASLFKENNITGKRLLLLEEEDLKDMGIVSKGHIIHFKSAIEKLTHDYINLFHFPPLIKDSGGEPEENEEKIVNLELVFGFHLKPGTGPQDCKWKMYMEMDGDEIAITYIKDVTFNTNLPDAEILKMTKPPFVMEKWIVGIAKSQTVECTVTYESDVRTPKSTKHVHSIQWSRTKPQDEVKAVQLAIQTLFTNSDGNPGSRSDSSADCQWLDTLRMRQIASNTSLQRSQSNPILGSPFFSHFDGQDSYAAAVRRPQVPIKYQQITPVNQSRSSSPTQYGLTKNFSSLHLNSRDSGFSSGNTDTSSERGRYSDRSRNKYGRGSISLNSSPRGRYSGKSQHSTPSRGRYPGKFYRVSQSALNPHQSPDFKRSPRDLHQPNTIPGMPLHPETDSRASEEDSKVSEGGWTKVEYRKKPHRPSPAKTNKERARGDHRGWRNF
T6 sequence (P48736 whole entry): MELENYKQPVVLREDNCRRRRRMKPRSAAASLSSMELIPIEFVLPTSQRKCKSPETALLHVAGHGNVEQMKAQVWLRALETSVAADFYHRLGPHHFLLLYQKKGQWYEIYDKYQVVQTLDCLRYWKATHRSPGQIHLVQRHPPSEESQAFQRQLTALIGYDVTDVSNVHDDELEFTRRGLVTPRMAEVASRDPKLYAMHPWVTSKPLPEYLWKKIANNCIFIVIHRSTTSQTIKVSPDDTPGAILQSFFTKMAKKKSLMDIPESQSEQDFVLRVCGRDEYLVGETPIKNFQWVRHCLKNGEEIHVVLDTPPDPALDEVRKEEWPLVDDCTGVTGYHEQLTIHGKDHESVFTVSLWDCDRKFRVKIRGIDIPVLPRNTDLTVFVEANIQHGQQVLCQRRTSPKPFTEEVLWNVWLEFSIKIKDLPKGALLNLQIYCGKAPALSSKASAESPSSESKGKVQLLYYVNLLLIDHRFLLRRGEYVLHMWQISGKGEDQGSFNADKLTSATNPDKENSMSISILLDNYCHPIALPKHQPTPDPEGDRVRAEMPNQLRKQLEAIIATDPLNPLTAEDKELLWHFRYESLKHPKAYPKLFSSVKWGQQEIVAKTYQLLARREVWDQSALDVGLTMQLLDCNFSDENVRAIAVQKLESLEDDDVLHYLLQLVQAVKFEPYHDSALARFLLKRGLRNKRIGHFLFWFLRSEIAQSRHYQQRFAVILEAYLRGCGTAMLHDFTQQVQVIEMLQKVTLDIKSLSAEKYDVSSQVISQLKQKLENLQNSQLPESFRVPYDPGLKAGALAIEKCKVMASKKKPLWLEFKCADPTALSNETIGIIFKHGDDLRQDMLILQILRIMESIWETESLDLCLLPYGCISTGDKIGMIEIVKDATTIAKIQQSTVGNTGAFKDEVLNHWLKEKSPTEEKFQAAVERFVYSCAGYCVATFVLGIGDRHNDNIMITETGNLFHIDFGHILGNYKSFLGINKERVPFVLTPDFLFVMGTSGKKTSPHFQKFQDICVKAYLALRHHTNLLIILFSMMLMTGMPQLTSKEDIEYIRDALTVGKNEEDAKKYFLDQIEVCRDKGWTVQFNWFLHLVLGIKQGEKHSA
T8 sequence (Q15569 whole entry): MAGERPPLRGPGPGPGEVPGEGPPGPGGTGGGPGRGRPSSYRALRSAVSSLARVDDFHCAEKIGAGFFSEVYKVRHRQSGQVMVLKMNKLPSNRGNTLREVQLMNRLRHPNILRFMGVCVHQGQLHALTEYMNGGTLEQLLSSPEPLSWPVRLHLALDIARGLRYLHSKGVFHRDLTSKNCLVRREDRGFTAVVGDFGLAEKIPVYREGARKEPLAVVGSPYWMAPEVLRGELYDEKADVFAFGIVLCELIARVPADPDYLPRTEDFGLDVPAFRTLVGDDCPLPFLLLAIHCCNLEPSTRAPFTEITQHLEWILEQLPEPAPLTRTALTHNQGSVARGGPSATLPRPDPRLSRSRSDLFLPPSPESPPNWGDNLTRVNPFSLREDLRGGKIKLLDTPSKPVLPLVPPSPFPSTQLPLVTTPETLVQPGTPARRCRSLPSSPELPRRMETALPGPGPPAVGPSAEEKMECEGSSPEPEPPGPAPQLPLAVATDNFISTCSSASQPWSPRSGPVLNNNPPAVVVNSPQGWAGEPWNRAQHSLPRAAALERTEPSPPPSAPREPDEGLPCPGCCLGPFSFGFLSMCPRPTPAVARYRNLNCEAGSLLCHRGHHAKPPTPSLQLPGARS

C[C@H]1COCCN1c1nc(-c2ccc(NC(=O)NC3CC3)cc2)cc(-c2ccccc2S(C)(=O)=O)n1 [Example 4, (S)-1-cyclopropyl-3-(4-(2-(3-methylmorpholino)-6-(2-(methylsulfonyl)phenyl)pyrimidin-4-yl)phenyl)urea]
< 5.00: all assays above

C[C@H]1COCCN1c1cc(-c2ccccc2S(C)(=O)=O)nc(-c2ccc(NC(=O)NC3CC3)cc2)n1 [Example 6, (S)-1-cyclopropyl-3-(4-(4-(3-methylmorpholino)-6-(2-(methylsulfonyl)phenyl)pyrimidin-2-yl)phenyl)urea]
< 5.00: all assays above

C[C@H]1COCCN1c1nc(-c2ccc(NC(=O)N[C@H]3CCC[C@@H]3O)cc2)cc(-c2cc(F)ccc2S(C)(=O)=O)n1 [Example 76, 1-(4-(6-(5-fluoro-2-(methylsulfonyl)phenyl)-2-((S)-3-methylmorpholino)pyrimidin-4-yl)phenyl)-3-((1S,2S)-2-hydroxycyclopentyl)urea]
not listed: kinases (kinome) [8]
< 5.00: all other assays above

C[C@H]1COCCN1c1nc(-c2ccc(NC(=O)NC3CC3)cc2)cc(-c2cccnc2S(C)(=O)=O)n1 [Example 46, (S)-1-cyclopropyl-3-(4-(2-(3-methylmorpholino)-6-(2-(methylsulfonyl)pyridin-3-yl)pyrimidin-4-yl)phenyl)urea]
< 5.00: all assays above

C[C@H]1COCCN1c1cc(-c2ccccn2)nc(-c2ccc(NC(=O)NCCO)cc2)n1 [Example 43, (S)-1-(2-hydroxyethyl)-3-(4-(4-(3-methylmorpholino)-6-(pyridin-2-yl)pyrimidin-2-yl)phenyl)urea]
< 5.00: all assays above

C[C@H]1COCCN1c1nc(-c2ccc(NC(=O)NC3CC3)cc2)cc(-c2cc(F)ccc2S(C)(=O)=O)n1 [Example 40, (S)-1-cyclopropyl-3-(4-(6-(5-fluoro-2-(methylsulfonyl)phenyl)-2-(3-methylmorpholino)pyrimidin-4-yl)phenyl)urea]
< 5.00: all assays above

CCNC(=O)Nc1ccc(-c2cc(-c3ccccc3C#N)nc(N3CCOC[C@@H]3C)n2)cc1 [Example 8, (S)-1-(4-(6-(2-cyanophenyl)-2-(3-methylmorpholino)pyrimidin-4-yl)phenyl)-3-ethylurea]
< 5.00: all assays above
